In publication PMC5573368, “Elucidation of Dietary Polyphenolics as Potential Inhibitor of Microtubule Affinity Regulating Kinase 4: In silico and In vitro Studies” (Scientific Reports, 2017):
Where two headings read alike, the source gives them in different places.

What was measured:
[1] = target: T1, MARK4 (Homo sapiens, UniProt Q96L34); assay: Fluorescence quenching binding study (modified Stern-Volmer); conditions: excitation 280 nm, 25 °C
T1 construct: inferred from Ni-NTA purification; made in house
T1 sequence (Q96L34 59-368): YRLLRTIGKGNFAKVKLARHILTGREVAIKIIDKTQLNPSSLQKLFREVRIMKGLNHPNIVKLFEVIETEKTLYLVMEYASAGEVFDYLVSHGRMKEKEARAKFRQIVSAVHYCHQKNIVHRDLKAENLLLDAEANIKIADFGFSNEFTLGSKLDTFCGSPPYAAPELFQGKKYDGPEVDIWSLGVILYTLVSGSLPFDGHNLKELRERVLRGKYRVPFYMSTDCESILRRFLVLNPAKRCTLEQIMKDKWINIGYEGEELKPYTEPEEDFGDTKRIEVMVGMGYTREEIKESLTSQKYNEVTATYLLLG

[2] = system: MCF-7 cells; assay: MTT cell proliferation assay, MCF-7; type: cell-based; conditions: Homo sapiens, MCF7; MCF-7, MTT, 48 h; read-out: IC50 (cell viability)
Description: (§1) Briefly, breast cancer cells (MCF-7), human cervical cancer cells (HeLa), human neuroblastoma (SH-SY5Y) cells and human embryonic kidney cells (HEK293T) were seeded in a 96 well plates at a concentration of 10 × 10^3 viable cells per well. […] After 48 h of treatment, both medium and inhibitor were removed from the cells, washed twice with phosphate buffer saline (PBS) and then 20 µl MTT (from 5 mg/ml stock) and 100 µl DMEM was loaded to each well followed by 4–5 hours incubation in a CO2 incubator at 37 °C. Finally, the residual MTT medium was removed carefully and dissolves the crystals of formazan by adding 100 µl DMSO in each well. The micro-titer plates were then agitated for 15–20 minutes on an orbital plate shaker and then absorbance at 570 nm was determined on a titerplate reader (BioRad). The absorbance value so obtained was converted into percentage viability in comparison to the control cells (untreated cells/cells treated with media only). For cell proliferation studies doxorubicin has been taken as positive control.

[3] = system: MCF-7 cells; assay: Intracellular ROS by DCFDA staining; type: cell-based, human; conditions: MCF-7, 20–120 μM, 12 h
Description: (§2) Followed by incubation, to measure intracellular ROS, 2-Dichlorofluorescein diacetate (DCFDA) staining was performed. […] Further, cytoplasmic superoxide level was measured by dihydroethidium staining (Fig. 7C). […] In fluorescence imaging, substantial decreases in the extent of DHE fluorescence as compared to control (untreated cells) have been observed (Fig. 7C ). […] Total Reactive oxygen species determination (ROS) content inside the cells was determined using the DCFDA reagent. This assay measures various ROS such as H2O2 and hydroxyl radicals. […] After that cells were washed twice with PBS, pH7.4, trypsinized and collected by centrifugation. Finally cells were resuspended in 300 μl of PBS and fluorescence was measured at Jasco spectroflourimeter (FP-6200) using a 5 mm quartz cuvette. The excitation and emission filters were set at 485/500–550 nm respectively. Similarly with some modifications, cytosolic superoxide levels were determined using dihydroxyethidium staining. Briefly, cells were grown on coverslips to 70–80% confluency and replaced the complete media with reduced serum media for overnight. […] Following DHE staining, DAPI is used to satin nuclei of the cells as described earlier. Fluorescence images were taken on Nikon-EclipseTS100 microscope.

[4] = system: phosphorylation of tau in SH-SY5Y cells; assay: Tau-phosphorylation assay by flow cytometry (anti-tau pSer262); type: cell-based, human; conditions: 80–120 μM, 24 hrs
[5] = system: HEK293 cells; assay: MTT cell proliferation assay, HEK293; type: cell-based, human; conditions: 48 h, at a dose even higher than 200 μM
Description: as §1

[6] = system: HeLa cells; assay: MTT cell proliferation assay, HeLa; type: cell-based; conditions: Homo sapiens, 48 h, read-out: IC50 (cell viability)
Description: as §1

[7] = target: T1, MARK4; assay: ATPase inhibition assay ([γ-32P]ATP hydrolysis, TLC); type: biochemical
[8] = system: MCF-7 cells; assay: Cytoplasmic superoxide by DHE staining; type: cell-based, human; conditions: MCF-7, rutin 80 μM, vanillin 120 μM
Description: as §2

[9] = system: SH-SY5Y cells; assay: MTT cell proliferation assay, SH-SY5Y; type: cell-based, human; conditions: 48 h, at a dose even higher than 200 μM
Description: as §1

[10] = system: MCF-7 cells; assay: Annexin-V apoptosis assay by flow cytometry; type: cell-based, human; conditions: MCF-7, IC50 concentration (rutin 80 μM, vanillin 120 μM), 48 h
From the text: Apoptosis plays a central role in the progress and pathophysiology of a wide variety of diseases. However, due to impairment of apoptotic signal transmission most of the cancerous cells evade apoptosis. […] Annexin- V staining was used to study the apoptosis. […] Cells were washed twice with phosphate-buffered saline (PBS) and stained with FITC labeled Annexin- V. Annexin- Vpositive cells were examined by flow cytometry. […] Annexin-V staining was used to determine the cell apoptosis, [73]. […] After treatment, nearly 2 × 10^6 cells were trypsinized and washed two times with 5 ml of PBS by centrifuging at 1800 rpm for 4 min. FITC-Annexin-V staining was done by using FITC-Annexin-V kit according to the manufacturer’s instructions (BD-Biosciences, USA). 10,000 events for each sample were analyzed by flow cytometry BD FACS Canto and data analysis was performed with help of flowJo software.

[11] = target: T1, MARK4; assay: Isothermal titration calorimetry; type: binding; conditions: ITC, two-site model; for K a1 (association constant): site 1, 25 °C; for K a2 (association constant): site 2, 25 °C
[12] = site 1, read-out: K D1 (dissociation constant)
[13] = site 2, read-out: K D2 (dissociation constant)

Row | Compound | Binding affinity (K a) [1] | IC50 [2] | DCF fluorescence (intracellular ROS) [3] | Phosphorylation of tau [4] | Effect on cell viability [5] | IC50 [6] | inhibition at 40 µM [7] | Cytoplasmic superoxide levels (DHE fluorescence) [8] | Effect on cell viability [9] | Increase in apoptosis as compared to the control cells [10] | K a1 (association constant) [11] | Kd [11, 12] | K a2 (association constant) [11] | Kd [11, 13] | other results
1 | COc1cc(/C=C/C(=O)O)ccc1O [Ferulic acid] | 13000 M⁻¹ | – | – | – | – | – | – | – | – | – | – | – | – | – | –
2 | COc1ccc([C@@H]2CC(=O)c3c(O)cc(O[C@@H]4O[C@H](CO[C@@H]5O[C@@H](C)[C@H](O)[C@@H](O)[C@H]5O)[C@@H](O)[C@H](O)[C@H]4O)cc3O2)cc1O [Hesperidin] | 112 M⁻¹ | – | – | – | – | – | – | – | – | – | – | – | – | – | –
3 | C[C@@H]1O[C@@H](OC[C@H]2O[C@@H](Oc3c(-c4ccc(O)c(O)c4)oc4cc(O)cc(O)c4c3=O)[C@H](O)[C@@H](O)[C@@H]2O)[C@H](O)[C@H](O)[C@H]1O [Rutin] | 287000 M⁻¹ | 80 µM | dose-dependent decrease in DCF fluorescence | inhibit the phosphorylation of tau | did not inhibit the viability | > 200 µM | ~50% | decreases cytoplasmic superoxide levels | did not inhibit the viability | 12% | K a1 = 2.04 × 10^5 ± 0.15 × 10^5 M^−1 | 4.9 µM | K a2 = 1.72 × 10^6 ± 0.31 × 10^6 M^−1 | 0.581 µM | ATPase enzyme activity in initial screening ([7]; initial screening, compound 30 µM (Fig. S5)): significant decrease in the enzyme activity; ΔH 1 (enthalpy change) ([11]; site 1): ΔH 1 = −4.61 × 10^6 cal/mol; ΔS 1 ([11]; site 1): ΔS 1 = −1.52 × 10^4 cal/mol/deg; ΔH 2 (enthalpy change) ([11]; site 2): ΔH 2 = −1.0 × 10^4 cal/mol; ΔS 2 ([11]; site 2): ΔS 2 = −4.74 cal/mol/deg

The next lines start with results.

Row | Binding affinity (K a) [1] | IC50 [2] | Compound | DCF fluorescence (intracellular ROS) [3] | Phosphorylation of tau [4] | Effect on cell viability [5] | IC50 [6] | inhibition at 40 µM [7] | Cytoplasmic superoxide levels (DHE fluorescence) [8] | Effect on cell viability [9] | Increase in apoptosis as compared to the control cells [10] | K a1 (association constant) [11] | Kd [11, 12] | K a2 (association constant) [11] | Kd [11, 13] | other results
4 | 7.6 M⁻¹ | – | O=C(O)c1cc(O)c(O)c(O)c1 [Gallic acid] | – | – | – | – | – | – | – | – | – | – | – | – | –
5 | 16500 M⁻¹ | 120 µM | COc1cc(C=O)ccc1O [Vanillin] | dose-dependent decrease in DCF fluorescence | inhibit the phosphorylation of tau | did not inhibit the viability | > 200 µM | ~50% | decreases cytoplasmic superoxide levels | did not inhibit the viability | 9% | K a1 = 8.43 × 10^3 ± 0.5 × 10^3 M^−1 | 119 µM | K a2 = 1.45 × 10^5 ± 0.29 × 10^5 M^−1 | 6.9 µM | –
6 | – | 0.12 µM | COc1cccc2c1C(=O)c1c(O)c3c(c(O)c1C2=O)C[C@@](O)(C(=O)CO)C[C@@H]3O[C@H]1C[C@H](N)[C@H](O)[C@H](C)O1 [doxorubicin, reference compound] | – | – | – | – | – | – | – | – | – | – | – | – | –
